According to patent US7547521B2, “Heteromultimeric ion channel receptor and uses thereof” (McGill University, priority 2000, dated 2009):
Entries after “also recorded” stand apart in the source; their conditions may differ.

What was measured:
[1] = system: homomultimeric (ASIC2A or ASIC3) and heteromultimeric (ASIC-2S.2) channels; assay: Proton-induced inward currents in oocytes expressing homomultimeric or heteromultimeric ASIC channels; type: cell-based; conditions: human and rat ASIC2A, ASIC3 or ASIC-2S.2-expressing oocytes
Experimental: (§1) According to method 1 described above, nuclei of Xenopus oocytes are injected with ASIC2A and ASIC3 cDNAs separately subcloned into pcDNA3 expression vector (1-5 ng). Control oocytes are injected with H2O. Oocytes are maintained at 18° C. in modified Barth's solution. Proton-activated currents are measured by two-electrode voltage clamp 1-3 days after injection. During voltage clamp (−60 mV/−100 mV)), oocytes are bathed in 116 mM NaCl, 2 mM KCl, 1.8 mM CaCl2, 10 mM acetic acid and 5 mM Hepes (pH 7.4 with NaOH). To determine proton-gating, bath solution is quickly switched to a solution of pH<7.4 for 10 sec, then returned to bath solution for washout. The stimulating solution is prepared by lowering the pH of the original bath solution with hydrochloric acid. The osmolality of the solutions is verified with an osmometer and corrected with mannitol or choline chloride. To document ionic selectivity, NaCl is replaced with LiCl or KCl. Current-voltage relationships are determined by stepping from a holding potential of −60 mV to potentials between −100 and +60 mV for 10 seconds before and during stimulation with low pH solution. FIGS. 1A (human) and 1B (rat) compare proton-activated currents carried by homomultimeric ASIC2A and ASIC3 receptors to the heteromultimeric ASIC-2S.2 receptors (ASIC2a+3). […] Species differences are also noteworthy. Indeed, using human subunits, both the early fast and sustained currents are strongly potentiated, while in the case of rat, the major effect appears to be on the sustained current only.
As described in example 2, voltage clamped oocytes expressing the ASIC-2S.2 channels are used to screen for molecules capable of modulating, activating or inhibiting channel activity.

[2] = biological target: T1, human ASIC2S.2 (ASIC2A+3) receptors (Homo sapiens, UniProt Q16515+Q9UHC3, A14P/I85V/M358I/P13Q); assay: Two-electrode voltage clamp of proton-gated currents in Xenopus oocytes expressing human ASIC2S.2; type: cell-based; conditions: 100 μM FMRFamide; normalised to maximal control current at pH 3
T1 construct: allowing RT-PCR amplified full length nucleic acids to be directionally subcloned into pcDNA3; expressed in transfected cells; host or cells: Xenopus laevis oocytes (nuclear injection of pcDNA3 cDNAs)
T1 sequence (Q16515 1-512): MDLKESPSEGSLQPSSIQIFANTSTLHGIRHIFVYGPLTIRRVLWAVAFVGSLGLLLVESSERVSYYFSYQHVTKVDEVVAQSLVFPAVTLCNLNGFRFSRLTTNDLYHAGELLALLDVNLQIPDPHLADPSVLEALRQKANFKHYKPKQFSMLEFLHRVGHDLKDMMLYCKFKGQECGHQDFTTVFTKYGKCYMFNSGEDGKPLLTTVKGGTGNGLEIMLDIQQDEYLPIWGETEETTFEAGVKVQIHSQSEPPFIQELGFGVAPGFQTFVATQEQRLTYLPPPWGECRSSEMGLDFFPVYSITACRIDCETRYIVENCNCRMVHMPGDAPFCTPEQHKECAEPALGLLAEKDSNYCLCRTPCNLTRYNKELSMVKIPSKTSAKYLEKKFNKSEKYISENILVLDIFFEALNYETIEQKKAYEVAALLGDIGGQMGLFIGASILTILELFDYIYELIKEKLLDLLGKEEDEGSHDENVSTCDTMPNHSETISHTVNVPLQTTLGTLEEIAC
T1 sequence (Q9UHC3 1-531 P13Q/A14P/I85V/M358I): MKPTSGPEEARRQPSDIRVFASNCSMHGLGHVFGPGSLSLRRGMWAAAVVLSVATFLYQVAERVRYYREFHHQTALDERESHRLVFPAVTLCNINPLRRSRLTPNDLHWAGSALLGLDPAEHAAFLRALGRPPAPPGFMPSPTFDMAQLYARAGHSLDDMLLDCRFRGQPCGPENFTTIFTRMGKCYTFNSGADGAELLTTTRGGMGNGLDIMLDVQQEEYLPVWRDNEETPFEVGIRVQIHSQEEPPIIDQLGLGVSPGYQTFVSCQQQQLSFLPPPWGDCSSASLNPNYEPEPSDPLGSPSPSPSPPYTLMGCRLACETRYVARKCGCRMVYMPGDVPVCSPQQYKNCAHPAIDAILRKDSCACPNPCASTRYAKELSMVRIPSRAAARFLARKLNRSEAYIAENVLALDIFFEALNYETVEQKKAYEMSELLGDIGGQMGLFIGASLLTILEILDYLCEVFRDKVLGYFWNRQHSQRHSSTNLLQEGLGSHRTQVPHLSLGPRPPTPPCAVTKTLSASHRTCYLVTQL
Experimental: as §1, with “Indeed, using human subunits, both the early fast and sustained currents are strongly potentiated, while in the case of rat, the major effect appears to be on the sustained current only.” left out

Compound	Effect on proton-induced inward currents [1]	Effect on proton-induced inward currents ([1]; listed as gadolinium)	Sensitivity and maximal response to acidification (pH dose-response curve) [2]
N=C(N)NC(=O)c1nc(Cl)c(N)nc1N [amiloride]	inhibitory effects; also recorded: antagonistic effects		
[Gd+3] [gadolinium ions, gadolinium]	antagonistic effects	inhibitory effects	
FMRFamide			increased
